The source made the active and inactive calls.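 How the source made its calls: active means EC50 at or below 10 µM, fitted or read by hand from inhibition at single concentrations; inactive means EC50 above 10 µM.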
target: 5-hydroxytryptamine receptor 1E (Homo sapiens) (UniProt P28566); assay: 5-HT1E receptor agonist potency, dose response, cell-based (AID 726); settings: CHO 5-HT1E/Ga15 NFAT-bla, FRET reporter
Sequence (P28566 whole entry, looked up): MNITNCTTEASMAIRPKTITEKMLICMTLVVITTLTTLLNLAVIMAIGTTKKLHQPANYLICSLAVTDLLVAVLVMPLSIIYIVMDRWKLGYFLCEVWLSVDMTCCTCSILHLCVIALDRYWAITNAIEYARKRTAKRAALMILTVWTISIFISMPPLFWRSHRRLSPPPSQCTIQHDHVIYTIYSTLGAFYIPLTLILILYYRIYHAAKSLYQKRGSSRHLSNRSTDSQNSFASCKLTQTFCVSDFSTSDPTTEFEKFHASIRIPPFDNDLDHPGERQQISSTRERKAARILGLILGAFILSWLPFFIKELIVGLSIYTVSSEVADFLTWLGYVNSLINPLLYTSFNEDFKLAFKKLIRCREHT

| SMILES | EC50 |
| --- | --- |
| CCCCN(CC)Cc1ccc(CNC(=O)Nc2ccc(OC)cc2OC)o1 | 1830 nM |
| O=C(Nc1cccc(-c2cn3ccsc3n2)c1)c1ccccc1 | > 50000 nM (inactive) |
| O=C(NCc1ccccc1)NC1(C(=O)N2CCCC2)CCCCC1 | > 50000 nM (inactive) |
| Cc1[nH]c2c(Cl)cccc2c1CCN | 677 nM |
| CN1CC=C(c2c[nH]c3ccccc23)CC1 | 6.78 nM |
| Cc1cccc(N2CCN(C(=O)Cc3c(C(=O)O)[nH]c4ccc(Cl)cc34)CC2)c1C | > 50000 nM (inactive) |
| CCN(CC)c1nc(N2CCOCC2)c(C#N)c2c1CN(C)CC2 | 1750 nM |
| CCOC(=O)C1CCN(C(c2cccnc2)c2c(NC(=O)c3ccco3)sc(C)c2C)CC1 (centres undefined) | > 50000 nM (inactive) |
| CCOC(=O)C1CCN(C(=O)Cc2c(C(=O)O)n(C)c3ccccc23)CC1 | > 50000 nM (inactive) |
| CCc1ccc(NC(=O)Cn2c(SC)nc3ccccc32)cc1 | > 50000 nM (inactive) |
| Cc1[nH]c2ccccc2c1C1=CCNCC1 | 194 nM |
| CN1CCN2c3ccccc3Cc3ccccc3C2C1 (centres undefined) | 37.8 nM |
| CCCCc1ccc2[nH]cc(CCN)c2c1 | 11.3 nM |
| c1ccc2sc(C3CCCNC3)nc2c1 (centres undefined) | 186 nM |
| CCOC(=O)c1cc2ccc(OC(=O)c3ccco3)cc2oc1=O | 7500 nM |
| Cn1cc(/C(Cc2ccccc2)=N\O)c2ccccc21 | > 50000 nM (inactive) |
| Cc1cc(C(C)(C)C)c(O)c(C)c1CC1=NCCN1 | 99 nM |
| COc1ccc(CN2CCN(c3ccccc3F)CC2)c(OC)c1 | > 50000 nM (inactive) |
| CC(=O)Nc1ccc(S(=O)(=O)N(C)c2ccc(O)cc2)cc1 | > 50000 nM (inactive) |
| COC(=O)CC(=O)Cc1nc(N)nc(Nc2ccc(C)c(C)c2)n1 | > 50000 nM (inactive) |
| Cn1c(-c2ccccc2)cnc1SCc1nc2ccccc2c(=O)[nH]1 | > 50000 nM (inactive) |
| CCOC(=O)C1=C(C)NC(=O)NC1c1ccc(OCC(=O)Nc2ccccc2)c(OC)c1 (centres undefined) | > 50000 nM (inactive) |
| COc1cc(CN2CCN(c3cccc(C)c3C)CC2)cc(OC)c1O | > 50000 nM (inactive) |
| CC[C@@H](CO)NC(=O)[C@@H]1C=C2c3cccc4c3c(cn4C)C[C@H]2N(C)C1 | 37.5 nM |
| Cc1cc(C(C)(C)C)cc(C)c1CC1=NCCN1 | 87 nM |

| SMILES | EC50 |
| --- | --- |
| CN(C)CCCn1c(NC(=O)C2CCCCC2)nc2ccccc21 | 469 nM |
| CN1CCN(/C(=N\O)c2nonc2N)CC1 | 1170 nM |
| NCCc1c[nH]c2ccc(F)cc12 | 484 nM |
| Cc1cccc(NC(=O)C2CCCN(C(=O)Nc3ccccc3)C2)c1C (centres undefined) | > 50000 nM (inactive) |
| CC(CCc1ccccc1)NC(=O)CSc1nc(N)cc(N)n1 (centres undefined) | > 50000 nM (inactive) |
| O=C(COC(=O)CCC1CCCC1)Nc1ccc(Cl)cn1 | > 50000 nM (inactive) |
| CN(C)CCOC(=O)c1cn(Cc2ccccc2)c2ccccc12 | 493 nM |
| C[N+]1=C2CCCCCN2C(O)(c2ccccc2)C1 (centres undefined) | 1330 nM |
| CCCCN(C)CCCNC(=O)Cn1c(=O)sc2ccccc21 | 3500 nM |
| CNCCc1c[nH]c2ccccc12 | 105 nM |
| C1=C(c2c[nH]c3ccccc23)CCNC1 | 15.7 nM |
| CCc1nn(C(C)C(=O)NCCN2CCN(c3cccc(C)c3C)CC2)c(=O)c2cc3occc3n12 (centres undefined) | 2320 nM |
| Cc1[nH]c2c(C(F)(F)F)cccc2c1CCN | 817 nM |
| c1ccc(N2CCN(Cc3cn4cccnc4n3)CC2)cc1 | 1070 nM |
| COc1ccc(N(CC(=O)NC2CCCC2)C(=O)Cn2nnc(-c3ccc(C)cc3)n2)cc1OC | > 50000 nM (inactive) |
| CC1CN(c2nnnn2-c2ccccc2)CC(C)O1 (centres undefined) | > 50000 nM (inactive) |
| CCN1CC=C(c2c[nH]c3ccccc23)CC1 | 23.9 nM |
| O=C(O)C1CCCCC1C(=O)NCCc1c[nH]c2ccccc12 (centres undefined) | 765 nM |
| Cc1noc(C)c1COc1ccc(C(=O)OC(C)C(=O)Nc2ccc(N3CCOCC3)cc2)cc1 (centres undefined) | > 50000 nM (inactive) |
| CSc1nc2ccc(NC(=O)C3CCCO3)cc2s1 (centres undefined) | > 50000 nM (inactive) |
| CCOC(=O)c1c(C)nc(-c2ccccc2)nc1NC(=O)CC | > 50000 nM (inactive) |
| O=S(=O)(c1cccc(Cl)c1)N1CCCC1 | > 50000 nM (inactive) |
| Cc1c(CN2CCN(c3cccc(C(F)(F)F)c3)CC2)c(=O)n(-c2ccccc2)n1C | 1840 nM |
| CCOC(=O)c1oc2ccccc2c1NC(=O)c1cc(OC)cc(OC)c1 | > 50000 nM (inactive) |

— PubChem BioAssay AID726 (The Scripps Research Institute Molecular Screening Center, 2007)
